In the supplement of paper PMC10307832:

What was measured:
Test in all cases: relative viability (nuclei count vs DMSO), 5 days (fraction); higher = more cells survive
ChaGo-K-1 = test system: ChaGo-K-1
In short: (§1)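 The day after seeding in 1536-well plates, lung cancer cell lines were treated by pin tool with a single drug, or with a fixed anchor-drug dose together with five library-drug doses (not always all listed) in √10 steps. After 5 days, a combined fix-and-stain solution (final 0.05% Triton X-100, 1% formaldehyde, 1 ug/ml Hoechst) was added. Nuclei counted on 4× images gave relative viability as treated counts over vehicle counts, reported as the median of duplicate plates.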

EMC-BAC-2 = test system: EMC-BAC-2
In short: as §1

EPLC-272H = test system: EPLC-272H
In short: as §1

HCC-44 = test system: HCC-44
In short: as §1

HOP-62 = test system: HOP-62
In short: as §1

LCLC-103H = test system: LCLC-103H
In short: as §1

LCLC-97TM1 = test system: LCLC-97TM1
In short: as §1

LOU-NH91 = test system: LOU-NH91
In short: as §1

NCI-H1395 = test system: NCI-H1395
In short: as §1

NCI-H1975 = test system: NCI-H1975
In short: as §1

NCI-H1993 = test system: NCI-H1993
In short: as §1

NCI-H2085 = test system: NCI-H2085
In short: as §1

NCI-H2126 = test system: NCI-H2126
In short: as §1

NCI-H2170 = test system: NCI-H2170
In short: as §1

NCI-H2228 = test system: NCI-H2228
In short: as §1

NCI-H2342 = test system: NCI-H2342
In short: as §1

NCI-H2405 = test system: NCI-H2405
In short: as §1

NCI-H3122 = test system: NCI-H3122
In short: as §1

NCI-H322M = test system: NCI-H322M
In short: as §1

NCI-H460 = test system: NCI-H460
In short: as §1

NCI-H520 = test system: NCI-H520
In short: as §1

NCI-H647 = test system: NCI-H647
In short: as §1

SK-LU-1 = test system: SK-LU-1
In short: as §1

C=C1C(=O)O[C@@H](CCCCCCCC)[C@@H]1C(=O)O [C-75] + O=C(c1cc(Cc2n[nH]c(=O)c3ccccc23)ccc1F)N1CCN(C(=O)C2CC2)CC1 [Olaparib] (partner 8 µM)
relative viability (ChaGo-K-1; first compound 0.08 µM): 0.401 | relative viability (ChaGo-K-1; first compound 0.253 µM): 0.392 | relative viability (ChaGo-K-1; first compound 0.8 µM): 0.411 | relative viability (ChaGo-K-1; first compound 2.53 µM): 0.358 | relative viability (ChaGo-K-1; first compound 8 µM): 0.401 | relative viability (EMC-BAC-2; first compound 0.08 µM): 0.506 | relative viability (EMC-BAC-2; first compound 0.253 µM): 0.464 | relative viability (EMC-BAC-2; first compound 0.8 µM): 0.475 | relative viability (EMC-BAC-2; first compound 2.53 µM): 0.389 | relative viability (EMC-BAC-2; first compound 8 µM): 0.389 | relative viability (EPLC-272H; first compound 0.08 µM): 0.874 | relative viability (EPLC-272H; first compound 0.253 µM): 0.878 | relative viability (EPLC-272H; first compound 0.8 µM): 0.702 | relative viability (EPLC-272H; first compound 2.53 µM): 0.701 | relative viability (EPLC-272H; first compound 8 µM): 0.436 | relative viability (HCC-44; first compound 0.08 µM): 0.998 | relative viability (HCC-44; first compound 0.253 µM): 0.944 | relative viability (HCC-44; first compound 0.8 µM): 0.962 | relative viability (HCC-44; first compound 2.53 µM): 0.905 | relative viability (HCC-44; first compound 8 µM): 0.919 | relative viability (HOP-62; first compound 0.08 µM): 0.532 | relative viability (HOP-62; first compound 0.253 µM): 0.5 | relative viability (HOP-62; first compound 0.8 µM): 0.321 | relative viability (HOP-62; first compound 2.53 µM): 0.372 | relative viability (HOP-62; first compound 8 µM): 0.393 | relative viability (LCLC-103H; first compound 0.08 µM): 0.8 | relative viability (LCLC-103H; first compound 0.253 µM): 0.719 | relative viability (LCLC-103H; first compound 0.8 µM): 0.697 | relative viability (LCLC-103H; first compound 2.53 µM): 0.641 | relative viability (LCLC-103H; first compound 8 µM): 0.767 | relative viability (LCLC-97TM1; first compound 0.08 µM): 0.349 | relative viability (LCLC-97TM1; first compound 0.253 µM): 0.402 | relative viability (LCLC-97TM1; first compound 0.8 µM): 0.494 | relative viability (LCLC-97TM1; first compound 2.53 µM): 0.338 | relative viability (LCLC-97TM1; first compound 8 µM): 0.303 | relative viability (LOU-NH91; first compound 0.08 µM): 0.909 | relative viability (LOU-NH91; first compound 0.253 µM): 0.786 | relative viability (LOU-NH91; first compound 0.8 µM): 0.878 | relative viability (LOU-NH91; first compound 8 µM): 0.88 | relative viability (NCI-H1395; first compound 0.08 µM): 0.423 | relative viability (NCI-H1395; first compound 0.253 µM): 0.433 | relative viability (NCI-H1395; first compound 2.53 µM): 0.465 | relative viability (NCI-H1395; first compound 8 µM): 0.511 | relative viability (NCI-H1975; first compound 0.08 µM): 0.777 | relative viability (NCI-H1975; first compound 0.253 µM): 0.817 | relative viability (NCI-H1975; first compound 0.8 µM): 0.755 | relative viability (NCI-H1975; first compound 2.53 µM): 0.77 | relative viability (NCI-H1975; first compound 8 µM): 0.741 | relative viability (NCI-H1993; first compound 0.08 µM): 1.02 | relative viability (NCI-H1993; first compound 0.253 µM): 1.34 | relative viability (NCI-H1993; first compound 0.8 µM): 0.676 | relative viability (NCI-H1993; first compound 2.53 µM): 1.05 | relative viability (NCI-H1993; first compound 8 µM): 1.17 | relative viability (NCI-H2085; first compound 0.08 µM): 0.766 | relative viability (NCI-H2085; first compound 0.253 µM): 0.61 | relative viability (NCI-H2085; first compound 0.8 µM): 0.753 | relative viability (NCI-H2085; first compound 2.53 µM): 0.681 | relative viability (NCI-H2085; first compound 8 µM): 0.725 | relative viability (NCI-H2126; first compound 0.08 µM): 0.881 | relative viability (NCI-H2126; first compound 0.253 µM): 0.927 | relative viability (NCI-H2126; first compound 0.8 µM): 0.858 | relative viability (NCI-H2126; first compound 2.53 µM): 0.878 | relative viability (NCI-H2126; first compound 8 µM): 0.894 | relative viability (NCI-H2170; first compound 0.08 µM): 0.594 | relative viability (NCI-H2170; first compound 0.253 µM): 0.633 | relative viability (NCI-H2170; first compound 0.8 µM): 0.541 | relative viability (NCI-H2170; first compound 2.53 µM): 0.647 | relative viability (NCI-H2170; first compound 8 µM): 0.627 | relative viability (NCI-H2228; first compound 0.08 µM): 0.709 | relative viability (NCI-H2228; first compound 0.253 µM): 0.897 | relative viability (NCI-H2228; first compound 0.8 µM): 0.494 | relative viability (NCI-H2228; first compound 2.53 µM): 0.543 | relative viability (NCI-H2228; first compound 8 µM): 0.414 | relative viability (NCI-H2342; first compound 0.08 µM): 0.503 | relative viability (NCI-H2342; first compound 0.253 µM): 0.49 | relative viability (NCI-H2342; first compound 0.8 µM): 0.374 | relative viability (NCI-H2342; first compound 2.53 µM): 0.38 | relative viability (NCI-H2342; first compound 8 µM): 0.454 | relative viability (NCI-H2405; first compound 0.08 µM): 0.808 | relative viability (NCI-H2405; first compound 0.253 µM): 0.734 | relative viability (NCI-H2405; first compound 0.8 µM): 0.879 | relative viability (NCI-H2405; first compound 2.53 µM): 0.803 | relative viability (NCI-H2405; first compound 8 µM): 0.852 | relative viability (NCI-H3122; first compound 0.08 µM): 0.662 | relative viability (NCI-H3122; first compound 0.253 µM): 0.636 | relative viability (NCI-H3122; first compound 0.8 µM): 0.567 | relative viability (NCI-H3122; first compound 2.53 µM): 0.51 | relative viability (NCI-H3122; first compound 8 µM): 0.635 | relative viability (NCI-H322M; first compound 0.08 µM): 0.764 | relative viability (NCI-H322M; first compound 0.253 µM): 0.965 | relative viability (NCI-H322M; first compound 0.8 µM): 0.754 | relative viability (NCI-H322M; first compound 8 µM): 0.764 | relative viability (NCI-H460; first compound 0.08 µM): 0.413 | relative viability (NCI-H460; first compound 0.253 µM): 0.503 | relative viability (NCI-H460; first compound 0.8 µM): 0.366 | relative viability (NCI-H460; first compound 2.53 µM): 0.356 | relative viability (NCI-H460; first compound 8 µM): 0.377 | relative viability (NCI-H520; first compound 0.08 µM): 0.343 | relative viability (NCI-H520; first compound 0.253 µM): 0.358 | relative viability (NCI-H520; first compound 0.8 µM): 0.269 | relative viability (NCI-H520; first compound 2.53 µM): 0.321 | relative viability (NCI-H520; first compound 8 µM): 0.257 | relative viability (NCI-H647; first compound 0.08 µM): 0.522 | relative viability (NCI-H647; first compound 0.253 µM): 0.727 | relative viability (NCI-H647; first compound 0.8 µM): 0.452 | relative viability (NCI-H647; first compound 2.53 µM): 0.495 | relative viability (NCI-H647; first compound 8 µM): 0.354 | relative viability (SK-LU-1; first compound 0.08 µM): 0.465 | relative viability (SK-LU-1; first compound 0.253 µM): 0.451 | relative viability (SK-LU-1; first compound 0.8 µM): 0.454 | relative viability (SK-LU-1; first compound 2.53 µM): 0.393 | relative viability (SK-LU-1; first compound 8 µM): 0.377
